Laboratory results published in US9434688B2, “Indole derivatives as selective androgen receptor modulators (SARMS)” (Janssen Pharmaceutica, NV, priority 2004, dated 2016).
Where “and” joins values, the source holds several entries; their conditions need not be identical. Equal entries are not always repeated.

Key:
androgen receptor [1] = target: T1, androgen receptor (Rattus norvegicus, UniProt P15207); assay: COS-7 Whole-Cell Androgen Receptor Binding Assay, Adenovirus Transduction
T1 sequence (P15207 1-902): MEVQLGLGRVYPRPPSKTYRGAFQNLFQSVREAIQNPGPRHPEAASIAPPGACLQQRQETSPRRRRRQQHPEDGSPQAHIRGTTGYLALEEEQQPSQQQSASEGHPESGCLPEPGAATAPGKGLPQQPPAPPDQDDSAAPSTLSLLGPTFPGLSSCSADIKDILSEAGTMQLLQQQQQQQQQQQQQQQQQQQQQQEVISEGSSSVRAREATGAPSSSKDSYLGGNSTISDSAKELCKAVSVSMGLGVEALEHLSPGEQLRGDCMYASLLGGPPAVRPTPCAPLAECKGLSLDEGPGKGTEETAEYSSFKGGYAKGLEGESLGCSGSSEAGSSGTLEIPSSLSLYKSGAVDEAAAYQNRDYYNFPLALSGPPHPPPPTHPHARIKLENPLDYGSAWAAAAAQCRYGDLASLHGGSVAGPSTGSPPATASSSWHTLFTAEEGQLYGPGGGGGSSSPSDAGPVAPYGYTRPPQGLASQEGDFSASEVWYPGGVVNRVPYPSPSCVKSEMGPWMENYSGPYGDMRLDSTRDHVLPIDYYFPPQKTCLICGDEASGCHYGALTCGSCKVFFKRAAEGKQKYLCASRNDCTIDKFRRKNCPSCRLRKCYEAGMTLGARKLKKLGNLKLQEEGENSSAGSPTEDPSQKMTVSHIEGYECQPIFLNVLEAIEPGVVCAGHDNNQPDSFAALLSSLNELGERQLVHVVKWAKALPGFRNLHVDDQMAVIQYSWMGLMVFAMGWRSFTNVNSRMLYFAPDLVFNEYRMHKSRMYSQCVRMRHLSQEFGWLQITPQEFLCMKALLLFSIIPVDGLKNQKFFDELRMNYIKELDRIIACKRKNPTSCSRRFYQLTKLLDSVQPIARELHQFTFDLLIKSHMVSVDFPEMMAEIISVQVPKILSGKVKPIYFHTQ
Experimental: COS-7 cells were plated in 96-well plates at 20,000 cells per well, in a solution of DMEM/F12 (GIBCO) containing 10% (v/v) charcoal-treated fetal bovine serum (Hyclone) and lacking phenol red. The cells were then incubated overnight at 37° C. in 5% (v/v) humidified CO2.
Test compound solutions were prepared by diluting the test compound in 100% (v/v) DMSO, if necessary.
Next, 1 mL of DMEM/F12 lacking phenol red was pipetted into each of the wells of a 2-mL 96-well assay block. […] The wells were carefully mixed by pipette.
In a 15 mL or 50 mL sterile centrifuge tube, a dilution in DMEM/F12 of the adenovirus AdEasy+rAR at a moi of 1:50 per well was prepared.
The medium was removed from the 96-well plates by inversion and the plates dried very briefly, inverted, on a sterile towel. As soon as possible after medium removal, 40 μL of the diluted test compound was added to each well, in duplicate. […] The plates were then incubated for 48 hours at 37° C. in 5% (v/v) humidified CO2.
The medium was removed from the above incubated plates by inversion and dried. Each well was then washed with 0.35 mL of 1×PBS. The PBS was then removed from the plates by inversion and the plates dried.
To each well was then added 50 μL of 0.5% (v/v) Triton X-100 (Sigma) in 1×PBS and the plates placed on a rotary shaker for 5 min. The contents of each well were then transferred to an OptiPlate-96 (Packard) scintillation plate. To each well was then added 0.2 mL of Microscint-20 (Packard) and the wells counted on a TopCount (Packard).
Percent inhibition was determined by testing dilutions of the test compound (usually duplicates of 10 μM) in the binding assay. Counts per well were measured and percents of inhibition determined. […] Counts per well were measured and IC50s determined by linear regression.

androgen receptor [2] = target: T1, androgen receptor; assay: Androgen Receptor Binding Using Rat Ventral Prostate Cytosol; set-up: from tissue; host or cells: ventral prostate cytosol of castrated male Sprague Dawley or Wistar rats; conditions: 3 µM

CCSCC(O)c1cc2cc([N+](=O)[O-])c(C(F)(F)F)cc2[nH]1 (racemic) [compound 158]
% Inhibition (androgen receptor [1]): 62% and 56% | % Inhibition (androgen receptor [2]): 52%
